Test system: Clonic Seizures Caused by Pentylenetetrazole
Assay: Protection against clonic seizures caused by pentylenetetrazole in rats
Type: in vivo
Conditions: oral; for ED50: Rattus norvegicus, 2% starch vehicle, groups of at least 5 rats, pentylenetetrazole 21 to 23 mg/kg i.v. at estimated time of peak effect, protection of 50% of animals (Litchfield and Wilcoxon), read-out: Median Effective Oral Dose ED50 (protection against clonic seizures caused by pentylenetetrazole); for effectiveness as anxiolytic agent relative to the respective dextrorotatory and racemic forms of the desmethyl prior art compound (Compounds 3 and 4): rats, from ED50 table
Description: The anti-anxiety properties of the active components of the present invention have been established in a test which indicates anxiolytic activity by a measure of protection from convulsions resulting from the administration of pentylenetetrazol. Graded dose levels of the dextro and racemic forms of the compound 1,2,3,11a-tetrahydro-10-mthyl-5H-pyrrolo[2,1-c] [1,4]benzodiazepin-5,11(10H)-dione are administered orally, in a 2% starch vehicle, to groups of at least 5 rats. At the estimated time of peak effect, the rats are treated intravenously with pentylenetetrazole at a dose of 21 to 23 mg./kg. of body weight. This dose is estimated to cause clonic seizures in 99% of unprotected rats. The effective dose of the test compound for protection of 50% of the animals is calculated by the method of J. T. Litchfield and F. Wilcoxon, Journal of Pharmacology and Experimental Therapeutics, 96, 99 (1949). The results are given in the table which follows in comparison with Librium (chlordiazepoxide), Valium (diazepam) and the dextro and racemic forms of 1,2,3,11 a-tetrahydro-5H-pyrrolo[2,1-c] [1,4]benzodiazepin-5,11(10H)-dione (U.S. Pat. No. 3,732,212) all of which were tested in exactly the same manner. It has been reported [R. T. Hill and D. R. Tedeschi, "Animal Testing and Screening Procedures in Evaluating Psychotropic Drugs" in An Introduction to Psychopharmacology, Eds. R. R. Rech and K. E. Moore, Raven Press, New York, pp. 237-288 (1971) that there is a high degree of correlation between antagonism of pentylenetetrazole seizures in rats and antianxiety effects in higher warm-blooded animals.

SMILES	ED50 [mg/kg]	effectiveness as anxiolytic agent relative to the respective dextrorotatory and racemic forms of the desmethyl prior art compound (Compounds 3 and 4)
CNC1=Nc2ccc(Cl)cc2C(c2ccccc2)=[N+]([O-])C1 [Compound 5, chlordiazepoxide]	2.5	–
O=C1Nc2ccccc2C(=O)N2CCCC12 (racemic) [Compound 4, Racemic-1,2,3,11a-tetrahydro-5H-pyrrolo[2,1-c]-[1,4]benzodiazepin-5,11(10H)-dione]	70	–
CN1C(=O)C2CCCN2C(=O)c2ccccc21 (racemic) [Compound 2, Racemic-1,2,3,11a-tetrahydro-10-methyl-5H-pyrrolo[2,1-c][1,4]benzodiazepin-5,11(10H)-dione]	20	far more effective
O=C1Nc2ccccc2C(=O)N2CCC[C@@H]12 [Compound 3, Dextro-1,2,3,11a-tetrahydro-5H-pyrrolo[2,1-c]-[1,4]-benzodiazepin-5,11(10H)-dione]	35	–
CN1C(=O)CN=C(c2ccccc2)c2cc(Cl)ccc21 [Compound 6, diazepam]	1.8	–
CN1C(=O)[C@@H]2CCCN2C(=O)c2ccccc21 [Compound 1, Dextro-1,2,3,11a-tetrahydro-10-methyl-5H-pyrrolo[2,1-c][1,4]benzodiazepin-5,11(10H)-dione]	10	far more effective
